Laboratory results from PubChem BioAssay (NCI).
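Five concentrations, 48 hours, 96-well plates. The concentration for full growth arrest is given as TGI.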 Where a SMILES comes first, the peptide text is derived from it. The star is where a group is joined. Boc = CC(C)(C)OC(=O)*; OtBu = CC(C)(C)O*

What was measured:
Experiment in all cases: NCI tumour cell line growth inhibition, 48 h
[1] = tested on: ACHN renal
[2] = tested on: U251 CNS
[3] = tested on: NCI-H522 lung
[4] = tested on: SNB-75 CNS
[5] = tested on: NCI-H460 lung
[6] = tested on: SK-MEL-28 melanoma
[7] = tested on: HCT-116 colon
[8] = tested on: HOP-62 NSCLC
[9] = tested on: 786-0 renal
[10] = tested on: DU-145 prostate
[11] = tested on: NCI/ADR-RES ovarian
[12] = tested on: UACC-257 melanoma
[13] = tested on: HCT-15 colon
[14] = tested on: HS 578T breast
[15] = tested on: MDA-MB-231 breast
[16] = tested on: TK-10 renal
[17] = tested on: HCC-2998 colon
[18] = tested on: BT-549 breast
[19] = tested on: SF-295 CNS
[20] = tested on: OVCAR-5 ovarian
[21] = tested on: HT29 colon
[22] = tested on: OVCAR-8 ovarian
[23] = tested on: SN12C renal
[24] = tested on: MDA-MB-435
[25] = tested on: K-562 leukemia
[26] = tested on: KM12 colon
[27] = tested on: COLO 205 colon
[28] = tested on: M14 melanoma
[29] = tested on: SW-620 colon
[30] = tested on: NCI-H23 lung
[31] = tested on: HOP-92 NSCLC
[32] = tested on: MCF7 breast
[33] = tested on: UACC-62 melanoma
[34] = tested on: OVCAR-4 ovarian
[35] = tested on: LOX IMVI melanoma
[36] = tested on: SK-OV-3 ovarian
[37] = tested on: SF-268 CNS
[38] = tested on: SNB-19 CNS
[39] = tested on: A549 NSCLC
[40] = tested on: A498 renal
[41] = tested on: RXF 393 renal
[42] = tested on: OVCAR-3 ovarian
[43] = tested on: CAKI-1 renal
[44] = tested on: CCRF-CEM leukemia
[45] = tested on: MDA-N
[46] = tested on: HL-60(TB) leukemia
[47] = tested on: IGROV1 ovarian
[48] = tested on: SF-539 CNS
[49] = tested on: EKVX NSCLC
[50] = tested on: NCI-H226 lung
[51] = tested on: MOLT-4 leukemia
[52] = tested on: SK-MEL-5 melanoma
[53] = tested on: UO-31 renal
[54] = tested on: T-47D breast
[55] = tested on: SK-MEL-2 melanoma
[56] = tested on: PC-3 prostate
[57] = tested on: MALME-3M melanoma
[58] = tested on: RPMI-8226 leukemia

SMILES: c1ccc2sc(C3(N4CCCCCC4)CCCCC3)cc2c1
- TGI [1]: 83.8 µM
- TGI [2]: 35 µM
- TGI [3]: 36.4 µM
- TGI [4]: 62.1 µM
- TGI [5]: 45.1 µM
- TGI [6]: 55 µM
- TGI [7]: 52.1 µM
- TGI [8]: 86.8 µM
- TGI [9]: 42.9 µM
- TGI [10]: > 100 µM
- TGI [11]: 55.2 µM
- TGI [12]: 50 µM
- TGI [13]: 53.6 µM
- TGI [14]: 44.7 µM
- TGI [15]: 47.5 µM
- TGI [16]: 53.4 µM
- TGI [17]: 29.4 µM
- TGI [18]: 61.2 µM
- TGI [19]: 59.1 µM
- TGI [20]: 37.4 µM
- TGI [21]: 36.8 µM
- TGI [22]: > 100 µM
- TGI [23]: 43.7 µM
- TGI [24]: 71.1 µM
- TGI [25]: 33.1 µM
- TGI [26]: 31.8 µM
- TGI [27]: 30 µM
- TGI [28]: 53.6 µM
- TGI [29]: 36.6 µM
- TGI [30]: 41.5 µM
- TGI [31]: 80 µM
- TGI [32]: 32.9 µM
- TGI [33]: 45.7 µM
- TGI [34]: > 100 µM
- TGI [35]: 43.4 µM
- TGI [36]: > 100 µM
- TGI [37]: 52.5 µM
- TGI [38]: 44.6 µM
- TGI [39]: > 100 µM
- TGI [40]: 36.8 µM
- TGI [41]: 33.4 µM
- TGI [42]: 38.6 µM
- TGI [43]: > 100 µM
- TGI [44]: 33.3 µM
- TGI [45]: 97.6 µM
- TGI [46]: 40.9 µM
- TGI [47]: > 100 µM
- TGI [48]: 46.1 µM
- TGI [49]: 43.9 µM
- TGI [50]: 42.9 µM
- TGI [51]: 31.5 µM
- TGI [52]: 33.3 µM
- TGI [53]: 56.2 µM

SMILES: COc1ccc(N(c2ccc(C#N)cc2)c2ccc(C#N)cc2)cc1
- TGI [1]: > 100 µM
- TGI [2]: > 100 µM
- TGI [3]: 82.9 µM
- TGI [4]: > 100 µM
- TGI [5]: > 100 µM
- TGI [6]: > 100 µM
- TGI [54]: 77.6 µM
- TGI [7]: > 100 µM
- TGI [8]: > 100 µM
- TGI [9]: > 100 µM
- TGI [10]: > 100 µM
- TGI [12]: > 100 µM
- TGI [13]: > 100 µM
- TGI [14]: > 100 µM
- TGI [55]: > 100 µM
- TGI [15]: > 100 µM
- TGI [16]: > 100 µM
- TGI [18]: > 100 µM
- TGI [19]: > 100 µM
- TGI [20]: > 100 µM
- TGI [21]: > 100 µM
- TGI [56]: > 100 µM
- TGI [22]: > 100 µM
- TGI [23]: > 100 µM
- TGI [24]: > 100 µM
- TGI [26]: > 100 µM
- TGI [27]: > 100 µM
- TGI [28]: > 100 µM
- TGI [29]: > 100 µM
- TGI [30]: > 100 µM
- TGI [31]: > 100 µM
- TGI [32]: > 100 µM
- TGI [33]: > 100 µM
- TGI [34]: > 100 µM
- TGI [35]: > 100 µM
- TGI [36]: > 100 µM
- TGI [37]: > 100 µM
- TGI [38]: > 100 µM
- TGI [39]: > 100 µM
- TGI [40]: > 100 µM
- TGI [42]: > 100 µM
- TGI [43]: > 100 µM
- TGI [44]: > 100 µM
- TGI [45]: > 100 µM
- TGI [46]: > 100 µM
- TGI [47]: > 100 µM
- TGI [48]: > 100 µM
- TGI [49]: > 100 µM
- TGI [50]: > 100 µM
- TGI [51]: > 100 µM
- TGI [52]: > 100 µM
- TGI [53]: > 100 µM

SMILES: CC(C)C1CC(CO)(CNc2nc(N)nc(Cl)c2C=O)C1 (stereo not given)
- TGI [1]: 22.8 µM
- TGI [2]: 10.6 µM
- TGI [3]: 1.14 µM
- TGI [4]: 15.4 µM
- TGI [5]: 31.9 µM
- TGI [6]: 3.62 µM
- TGI [54]: > 100 µM
- TGI [7]: 7.23 µM
- TGI [8]: 37 µM
- TGI [9]: > 100 µM
- TGI [10]: 29.1 µM
- TGI [11]: 23.8 µM
- TGI [12]: 6.06 µM
- TGI [13]: 32.1 µM
- TGI [14]: 31.3 µM
- TGI [55]: 3.31 µM
- TGI [15]: 5.14 µM
- TGI [16]: > 100 µM
- TGI [17]: 4.32 µM
- TGI [18]: 52.2 µM
- TGI [19]: 44.4 µM
- TGI [20]: 96.9 µM
- TGI [21]: 6.42 µM
- TGI [56]: 5.16 µM
- TGI [22]: 8.33 µM
- TGI [23]: 28.5 µM
- TGI [24]: 4.58 µM
- TGI [25]: 6.15 µM
- TGI [26]: > 46.7 µM
- TGI [27]: 28 µM
- TGI [28]: 3.24 µM
- TGI [29]: 21.8 µM
- TGI [30]: 4.64 µM
- TGI [31]: 4.83 µM
- TGI [32]: > 100 µM
- TGI [57]: 44.3 µM
- TGI [33]: 4.11 µM
- TGI [34]: 10.9 µM
- TGI [35]: 3.81 µM
- TGI [36]: 61.7 µM
- TGI [37]: > 23.7 µM
- TGI [38]: 17.1 µM
- TGI [58]: > 100 µM
- TGI [39]: 31.4 µM
- TGI [40]: 56.1 µM
- TGI [41]: 28.3 µM
- TGI [42]: 8.77 µM
- TGI [44]: 6.36 µM
- TGI [45]: 9.31 µM
- TGI [46]: 3.92 µM
- TGI [47]: 3.52 µM
- TGI [48]: 41.5 µM
- TGI [49]: 11.4 µM
- TGI [50]: 26.3 µM
- TGI [51]: 5.08 µM
- TGI [53]: 13 µM

SMILES: CC(C)(C)OC(=O)CC(NC(=O)OC(C)(C)C)C(=O)NC(Cc1ccccc1)C(N)=O (stereo not given) (Boc-Asp(OtBu)-Phe-NH2; configuration not given here)
- TGI [1]: > 100 µM
- TGI [2]: > 100 µM
- TGI [3]: > 100 µM
- TGI [4]: > 100 µM
- TGI [5]: > 100 µM
- TGI [6]: > 100 µM
- TGI [54]: > 100 µM
- TGI [7]: > 100 µM
- TGI [8]: > 100 µM
- TGI [9]: > 100 µM
- TGI [10]: > 100 µM
- TGI [11]: > 100 µM
- TGI [12]: > 100 µM
- TGI [13]: > 100 µM
- TGI [14]: > 100 µM
- TGI [55]: > 100 µM
- TGI [15]: > 100 µM
- TGI [16]: > 100 µM
- TGI [18]: > 100 µM
- TGI [19]: > 100 µM
- TGI [20]: > 100 µM
- TGI [21]: > 100 µM
- TGI [56]: > 100 µM
- TGI [22]: > 100 µM
- TGI [23]: > 100 µM
- TGI [24]: > 100 µM
- TGI [25]: > 100 µM
- TGI [26]: > 100 µM
- TGI [27]: > 100 µM
- TGI [28]: > 100 µM
- TGI [29]: > 100 µM
- TGI [30]: > 100 µM
- TGI [31]: > 100 µM
- TGI [32]: > 100 µM
- TGI [57]: > 100 µM
- TGI [34]: > 100 µM
- TGI [35]: > 100 µM
- TGI [36]: > 100 µM
- TGI [37]: > 100 µM
- TGI [38]: > 100 µM
- TGI [58]: > 100 µM
- TGI [39]: > 100 µM
- TGI [40]: > 100 µM
- TGI [41]: > 100 µM
- TGI [42]: > 100 µM
- TGI [43]: > 100 µM
- TGI [44]: > 100 µM
- TGI [45]: > 100 µM
- TGI [47]: > 100 µM
- TGI [48]: > 100 µM
- TGI [49]: > 100 µM
- TGI [50]: > 100 µM
- TGI [52]: > 100 µM
- TGI [53]: > 100 µM
